According to patent EP0529636B1, “Novel isatinoxime derivatives, their preparation and use” (NEUROSEARCH A/S, priority 1991, dated 1993):

Tests used:
[1] = biological target: AMPA ((RS)-α-amino-3-hydroxy-5-methyl-4-isoxazolepropionic acid) binding site; assay: AMPA binding assay (T. Honoré et al., Neuroscience Letters 54, 27-32 (1985))
Method: In the same assay 1,2,3,6,7,8-hexahydro-3-(hydroxyimino)-N,N,7-trimethyl-2-oxobenzo[2,1-b:3,4-c']dipyrrole-5-sulfonamide has an IC50 of 0.3 µM.

[2] = tested on: AMPA-induced clonic seizures; assay: AMPA-induced clonic seizures (AMPA seizure test); type: in vivo, female NMRI mice; conditions: Mus musculus, iv; test compound i.v. 5 min before 0.3 µg icv AMPA; dose inhibiting 50% of the mice from having clonic seizures
Method: AMPA given icv (intracerebroventricular) (15 µg/kg) NMRI to mice induces clonic seizures which should be inhibited by non-NMDA receptor excitatory amino acid antagonists.
Test compound was given i.v. 5 min (or p.o. 30 min) before a 0.3 µg icv administration of AMPA to 10 female NMRI mice (weighing 24-26 g) per dose. The number of mice experiencing clonic seizures within the next 5 min was noted. An ED50 value was calculated as the dose inhibiting 50% of the mice from having clonic seizures.

Row | IC50 [1] [µM] | Structure (SMILES) | ED50 [2] [mg/kg]
1 | 0.3 | CN1Cc2c(S(=O)(=O)N(C)C)cc3c(c2C1)NC(=O)C3=NO [1,2,3,6,7,8-hexahydro-3-(hydroxyimino)-N,N,7-trimethyl-2-oxobenzo[2,1-b:3,4-c']dipyrrole-5-sulfonamide] | 
2 | 4 | O=C1CCCc2c3c(cc([N+](=O)[O-])c2N1)C(=NO)C(=O)N3 [5-nitro-1H,6H-2,3,7,8,9,10-hexahydro-2,3,7-trioxo-azepino[2,3-g]indole-3-oxime] | 
3 | 1 | CN1Cc2ccc3c(c2C1)NC(=O)C3=NO [7-methyl-1,6,7,8-tetrahydrobenzo[2,1-b:3,4-c']dipyrrole-2,3-dione-3-oxime] | 8
